Where two headings read alike, the source gives them in different places.
Tests used:
[1] = assay type: in vivo, BALB/c mice; conditions: male, BALB/c, mouse, iv
[2] = monkeys; cited from earlier work
[3] = tested on: enzymes responsible for its elimination; conditions: cited from earlier work
[4] = Kidney (renal clearance CLr); fixed to reported GFR value in mice; cited from earlier work
[5] = tested on: plasma proteins; conditions: cited from earlier work
[6] = Global PBPK model fitted to mouse plasma and tissue PK data; assay type: in vivo, mice; conditions: for Nonspecific binding (NSti): mice, model estimate

CC(C)C[C@H](NC(=O)[C@H](Cc1ccccc1)NC(=O)c1cnccn1)B(O)O [Bortezomib]
AUC(0-inf) ([1]; bone, 0.25 mg/kg): 23.7 µM·h | Kp ([1]; bone, 0.25 mg/kg): 26.9 | half-life ([1]; bone, 0.25 mg/kg): 277 h | AUC(0-inf) ([1]; bone, 1 mg/kg): 27.2 µM·h | Kp ([1]; bone, 1 mg/kg): 1.4 | half-life ([1]; bone, 1 mg/kg): 173 h | AUC(0-inf) ([1]; kidney, 0.25 mg/kg): 24.7 µM·h | half-life ([1]; kidney, 0.25 mg/kg): 59 h | AUC(0-inf) ([1]; kidney, 1 mg/kg): 180 µM·h | half-life ([1]; kidney, 1 mg/kg): 204 h | AUC(0-inf) ([1]; liver, 0.25 mg/kg): 17 µM·h | half-life ([1]; liver, 0.25 mg/kg): 69 h | AUC(0-inf) ([1]; liver, 1 mg/kg): 33.3 µM·h | half-life ([1]; liver, 1 mg/kg): 105 h | AUC(0-inf) ([1]; lung, 0.25 mg/kg): 39.3 µM·h | Kp ([1]; lung, 0.25 mg/kg): 44.7 | half-life ([1]; lung, 0.25 mg/kg): 178 h | AUC(0-inf) ([1]; lung, 1 mg/kg): 60.9 µM·h | Kp ([1]; lung, 1 mg/kg): 3.1 | half-life ([1]; lung, 1 mg/kg): 133 h | AUC(0-inf) ([1]; muscle, 0.25 mg/kg): 5.7 µM·h | Kp ([1]; muscle, 0.25 mg/kg): 6.4 | half-life ([1]; muscle, 0.25 mg/kg): 204 h | AUC(0-inf) ([1]; muscle, 1 mg/kg): 17.3 µM·h | Kp ([1]; muscle, 1 mg/kg): 0.9 | half-life ([1]; muscle, 1 mg/kg): 112 h | AUC(0-inf) ([1]; plasma, 0.25 mg/kg): 0.9 µM·h | Kp ([1]; plasma, 0.25 mg/kg): 1 | half-life ([1]; plasma, 0.25 mg/kg): 96 h | AUC(0-inf) ([1]; plasma, 1 mg/kg): 19.4 µM·h | Kp ([1]; plasma, 1 mg/kg): 1 | half-life ([1]; plasma, 1 mg/kg): 267 h | AUC(0-inf) ([1]; spleen, 0.25 mg/kg): 103 µM·h | Kp ([1]; spleen, 0.25 mg/kg): 117 | half-life ([1]; spleen, 0.25 mg/kg): 248 h | AUC(0-inf) ([1]; spleen, 1 mg/kg): 107 µM·h | Kp ([1]; spleen, 1 mg/kg): 5.5 | half-life ([1]; spleen, 1 mg/kg): 131 h | AUC(0-inf) ([1]; whole blood, 0.25 mg/kg): 46.4 µM·h | Kp ([1]; whole blood, 0.25 mg/kg): 52.8 | half-life ([1]; whole blood, 0.25 mg/kg): 182 h | AUC(0-inf) ([1]; whole blood, 1 mg/kg): 92 µM·h | Kp ([1]; whole blood, 1 mg/kg): 4.8 | half-life ([1]; whole blood, 1 mg/kg): 173 h | Renal clearance contribution to elimination [2]: approximately 25% | Induction or inhibition of enzymes responsible for its elimination [3]: not an inducer or inhibitor | clearance [4]: 0.28 mL/min | Plasma protein unbound fraction (fu) ([5]; fixed in PBPK model): 0.17 | Binding to plasma proteins ([5]; linear binding at therapeutic concentrations): approximately 83% | Nonspecific binding (NSti) ([6]; Bone): 1.06 | Nonspecific binding (NSti) ([6]; Erythrocyte): 7.57 | Nonspecific binding (NSti) ([6]; Kidney): 9.60 | Nonspecific binding (NSti) ([6]; Liver): 1.54 | Nonspecific binding (NSti) ([6]; Lung): 2.54 | Nonspecific binding (NSti) ([6]; Muscle): 1.17 | Nonspecific binding (NSti) ([6]; Remainder compartment): 96.76 | Nonspecific binding (NSti) ([6]; Spleen): 3.68 | clearance ([6]; male, BALB/c, mouse, liver, intravenous): 0.0063 mL/min
